According to US20100120738A1, “ANTI-APOPTOTIC BENZODIAZEPINE RECEPTOR LIGAND INHIBITORS” (priority 2006, published 2010):
Where two headings read alike, the source gives them in different places.

How the values were obtained:
[1] = Plasma recovery after oral dose (another study); format: in vivo; settings: 3.5 mg/kg dose administered orally; not shown
[2] = Lipophilicity by octanol partitioning; format: physicochemical; settings: octanol-water
Experimental: To indicate the likelihood that the compounds will cross lipid membranes and be absorbed once administered by oral means, their lipophilicities were determined by octanol partitioning. […] Quantitation was performed by HPLC-UV.

[3] = Superoxide dismutase (SOD) activity; format: biochemical
PC12 cells = assay: Protection against STS-induced apoptosis in PC12 cells (XTT viability assay); format: cell-based, rat
Experimental: Rat pheochromocytoma (PC12) cells were cultured in collagen-coated 96-well plates according to directions provided by the American Type Culture Collection. Staurosporine was added at various concentrations sufficient to induce apoptosis. Test compounds were added together with the staurosporine. Cells were incubated overnight at 37° C., 5% CO2. After 18-24 hours, test media was removed and cell viability was determined using the XTT viability assay described by Baker et al., J. Pharmacol. Exp, Therapeutics 284, 215-221, 1998, the contents of which are incorporated herein by reference.

[4] = Stability in USP simulated gastric fluid (SGF); format: in vitro ADME; settings: 37° C., pH approx. 1.2
Description: Aliquots of SGF were withdrawn and intact compound quantitated by HPLC-UV.

[5] = FIG. 12, among compounds tested

## C1=Cc2nc1cc1ccc([n-]1)c(C1CCOCC1)c1nc(cc3ccc([n-]3)c2C2CCOCC2)C=C1.[Cl-].[Mn+3] [EUK-451, {[{(Porphine-5,15-diyl)bis[4-Tetrahydropyrano-diyl]}](2-)-N^21,N^22,N^23,N^24} manganese(III) chloride]
[1]
  recovery from plasma: recovered from plasma at low levels
[2]
  Log10 P value: −0.660 ± 0.011
  P value (octanol partitioning coefficient): 0.219 ± 0.005
[3]; cuvette format, read-out: Cuvette IC50
  IC50: 29.1 µM
[3]; microplate format, read-out: Microplate IC50
  IC50: 2.39 µM
PC12 cells; [5]
  relative activity against STS-induced apoptosis: highest activity
  relative toxicity in PC12 model: lowest toxicity
PC12 cells; FIG. 12, at up to about 5 μM concentration, toxicity blunts protection at high concentrations
  effect on staurosporine-induced apoptosis of PC12 cells: effectively reduce apoptosis
[4]
  Percentage remaining after 90 mins in SGF: 100%
